Test [1] addresses T1, DNA dC->dU-editing enzyme APOBEC-3G (Homo sapiens, UniProt Q9HC16). Kind of test: Dose Response confirmation of small molecule APOBEC3G DNA Deaminase Inhibitors via a fluorescence-based single-stranded DNA deaminase assay. [Related pubchem assays (depositor defined):AID493012, AID493028]. The format is functional.
The target of test [2] is T2, DNA dC->dU-editing enzyme APOBEC-3A (Homo sapiens, UniProt P31941). Kind of test: APOBEC3A DNA deaminase inhibitors, dose response, biochemical (AID 504722). The format is functional.
The target of another test is Nonstructural protein 1 (Influenza A virus, UniProt Q194T2). The format is functional, Influenza A virus (A/California/07/2009(H1N1)).
A further test has as its target T3, Aminopeptidase N (Plasmodium falciparum FcB1/Columbia, UniProt O96935).
T3 sequence (O96935 whole entry): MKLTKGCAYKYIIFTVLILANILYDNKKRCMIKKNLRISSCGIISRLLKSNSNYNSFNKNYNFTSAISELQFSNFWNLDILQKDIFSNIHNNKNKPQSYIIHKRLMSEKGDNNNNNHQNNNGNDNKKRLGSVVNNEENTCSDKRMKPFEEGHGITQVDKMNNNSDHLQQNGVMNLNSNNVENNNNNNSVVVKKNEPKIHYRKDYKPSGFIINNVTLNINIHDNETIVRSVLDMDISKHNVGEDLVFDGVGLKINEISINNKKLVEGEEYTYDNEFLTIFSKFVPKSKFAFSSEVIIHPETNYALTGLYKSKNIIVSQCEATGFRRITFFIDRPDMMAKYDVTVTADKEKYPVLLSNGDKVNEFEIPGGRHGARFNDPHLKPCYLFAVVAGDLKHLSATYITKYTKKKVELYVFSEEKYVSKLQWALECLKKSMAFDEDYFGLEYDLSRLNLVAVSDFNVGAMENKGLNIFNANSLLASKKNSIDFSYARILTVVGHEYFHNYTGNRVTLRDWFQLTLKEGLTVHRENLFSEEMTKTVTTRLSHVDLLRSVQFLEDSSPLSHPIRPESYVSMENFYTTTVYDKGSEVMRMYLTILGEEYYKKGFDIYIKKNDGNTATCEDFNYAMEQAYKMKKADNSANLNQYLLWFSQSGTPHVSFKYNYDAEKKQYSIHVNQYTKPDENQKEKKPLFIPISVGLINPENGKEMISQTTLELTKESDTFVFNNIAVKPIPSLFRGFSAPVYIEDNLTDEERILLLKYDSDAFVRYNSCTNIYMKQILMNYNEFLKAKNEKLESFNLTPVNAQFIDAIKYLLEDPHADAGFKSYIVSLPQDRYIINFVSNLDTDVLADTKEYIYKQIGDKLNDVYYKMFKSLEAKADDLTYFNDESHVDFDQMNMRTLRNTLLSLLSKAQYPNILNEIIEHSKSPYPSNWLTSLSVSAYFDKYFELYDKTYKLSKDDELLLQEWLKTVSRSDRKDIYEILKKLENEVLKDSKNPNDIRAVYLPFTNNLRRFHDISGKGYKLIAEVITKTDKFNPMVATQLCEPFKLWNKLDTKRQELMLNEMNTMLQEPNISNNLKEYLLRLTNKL
Kind of test: P. falciparum M1AAP inhibitors, biochemical, fluorogenic H-Leu-NHMec substrate, 1536-well (AID 1445). Further details: species or system Plasmodium falciparum 3D7, 3D7.

Test [3] has as its target T1, DNA dC->dU-editing enzyme APOBEC-3G. The class given is functional.
The target in test [4] is T2, DNA dC->dU-editing enzyme APOBEC-3A. Kind of test: Dose Response confirmation of small molecule APOBEC3A DNA Deaminase Inhibitors via a fluorescence-based single-stranded DNA deaminase assay. [Related pubchem assays (depositor defined):AID493011, AID493024]. The format is functional.
Test [5] deals with Glucose-6-phosphate 1-dehydrogenase (Homo sapiens, UniProt P11413). Kind of test: human G6PD enzyme inhibitors, dose response, selectivity assay for P. falciparum G6PD inhibitor project, biochemical, fluorescence (AID 504792). The class given is functional.
Test [6] can be described thus: growth suppression of PTEN-null colon cells, dose response, cell-based, HCT116 PTEN knockout (AID 1047).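 Further: HCT116 colon tumor cells with PTEN knocked out; cells exposed to compound for 60 hours before readout; potency for loss of cell viability measured by luminescence.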 The class given is functional.
Test [7] has as its target Voltage-dependent T-type calcium channel subunit alpha-1H (Homo sapiens, UniProt O95180). The format is functional.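 Further: channel activity triggered by adding a high calcium stimulation buffer.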
The nature of test [8]: growth suppression of beta-catenin-knockout colon cells, dose response, cell-based, HCT116, human colon tumor (AID 1045).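 Further: HCT116 colon tumor cells with beta catenin knocked out; cells exposed to compound for 60 hours.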 The class given is functional.
Test [9] concerns the target T4, Fatty acid synthase (Homo sapiens, UniProt P49327). Kind of test: FAS thioesterase domain inhibitors, dose response, biochemical, kinetic fluorescence intensity (AID 624326).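 Further: rate of fluorescence rise from hydrolysis of a fluorogenic O-methyl fluorescein ester substrate.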 The format is functional.
The target of test [10] is T4, Fatty acid synthase. Description: FAS thioesterase domain inhibitors, dose response, biochemical, endpoint fluorescence intensity, uHTS hits (AID 624327).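 Further: fluorescence from hydrolysis of an O-methyl fluorescein acyl ester substrate by the enzyme.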 The format is functional.
Test [11] is described as follows: cytotoxicity in HEK-293T cells, dose response, cytotoxicity control for TCR NF-kB inhibitor project, luminescence, T-cell screen hits (AID 489026).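 Further: cells exposed to compound about 14 hours before the viability readout.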 The format is functional, cell-based.
The test system of another test is H4. Kind of test: Luminescence Cell-Based Dose Response HTS to Identify Activators of 5'UTR Stem-Loop Driven Prion Protein mRNA Translation in H4 Neuroglioblastoma Cells. [Related pubchem assays: 1829 (Project Summary), 1814 (Primary HTS)]. The format is functional. The conditions noted are these: Homo sapiens.
The nature of test [12]: Luminescence Cell-Based Dose Confirmation HTS to Identify Activators of 5'UTR Stem-Loop Driven Alpha-Synuclein mRNA Translation in H4 Neuroglioblastoma Cells. [Related pubchem assays: 1829 (Project Summary), 1814 (Primary HTS)]. The format is functional.
The nature of test [13]: Luminescence Cell-Based Dose Response HTS to Identify Activators of Luciferase Translation or Activity in H4 […] Cells. [Related pubchem assays: 1829 (Project Summary), 1814 (Primary HTS)]. The format is functional.
A short description of test [14]: HEp-2 cell cytotoxicity, dose response, cytotoxicity control for RSV inhibitor project, HTS (AID 2410). The class given is functional. The conditions noted are these: human respiratory syncytial virus.
In another test the target is Cytochrome P450 2D6 (Homo sapiens, UniProt P10635).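 Further: CYP2D6 member of a cytochrome P450 panel assay.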

The values that follow come from ChEMBL document CHEMBL1201862, “PubChem BioAssay data set” (2004).

Structures are written as SMILES. The source made the active and inactive calls. A value given as a limit tells only on which side of the number the result lay.

T1 sequence (Q9HC16 whole entry): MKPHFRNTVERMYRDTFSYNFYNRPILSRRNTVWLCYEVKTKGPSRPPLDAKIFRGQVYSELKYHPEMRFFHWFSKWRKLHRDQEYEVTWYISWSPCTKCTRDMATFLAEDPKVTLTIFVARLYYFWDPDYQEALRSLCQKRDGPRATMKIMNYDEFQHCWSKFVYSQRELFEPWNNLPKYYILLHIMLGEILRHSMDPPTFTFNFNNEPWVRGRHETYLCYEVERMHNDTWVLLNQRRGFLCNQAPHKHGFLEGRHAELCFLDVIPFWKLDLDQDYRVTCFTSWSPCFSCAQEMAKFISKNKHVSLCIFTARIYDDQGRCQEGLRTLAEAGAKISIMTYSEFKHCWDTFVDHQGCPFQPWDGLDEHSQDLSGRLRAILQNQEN
T2 sequence (P31941 whole entry): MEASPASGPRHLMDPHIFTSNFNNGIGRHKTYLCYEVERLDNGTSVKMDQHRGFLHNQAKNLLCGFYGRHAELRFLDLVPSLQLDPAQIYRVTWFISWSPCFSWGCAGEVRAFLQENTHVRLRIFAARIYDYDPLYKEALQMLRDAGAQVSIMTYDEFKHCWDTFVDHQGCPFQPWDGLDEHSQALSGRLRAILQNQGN
Sequence of Glucose-6-phosphate 1-dehydrogenase (P11413 whole entry): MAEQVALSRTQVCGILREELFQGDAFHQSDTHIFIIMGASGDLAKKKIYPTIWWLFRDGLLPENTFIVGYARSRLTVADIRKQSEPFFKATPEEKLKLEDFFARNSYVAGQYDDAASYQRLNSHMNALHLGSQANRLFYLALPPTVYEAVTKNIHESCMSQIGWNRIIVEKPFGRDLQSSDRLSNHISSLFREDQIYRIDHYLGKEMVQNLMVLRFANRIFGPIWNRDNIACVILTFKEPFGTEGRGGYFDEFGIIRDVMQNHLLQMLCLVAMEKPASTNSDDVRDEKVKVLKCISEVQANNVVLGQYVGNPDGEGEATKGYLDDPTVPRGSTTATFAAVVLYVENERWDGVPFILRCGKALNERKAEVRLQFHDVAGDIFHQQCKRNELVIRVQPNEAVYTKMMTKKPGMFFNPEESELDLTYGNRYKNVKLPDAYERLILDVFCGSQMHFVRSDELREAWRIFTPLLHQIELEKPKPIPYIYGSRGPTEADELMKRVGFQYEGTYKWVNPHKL
Sequence of Voltage-dependent T-type calcium channel subunit alpha-1H (O95180 whole entry): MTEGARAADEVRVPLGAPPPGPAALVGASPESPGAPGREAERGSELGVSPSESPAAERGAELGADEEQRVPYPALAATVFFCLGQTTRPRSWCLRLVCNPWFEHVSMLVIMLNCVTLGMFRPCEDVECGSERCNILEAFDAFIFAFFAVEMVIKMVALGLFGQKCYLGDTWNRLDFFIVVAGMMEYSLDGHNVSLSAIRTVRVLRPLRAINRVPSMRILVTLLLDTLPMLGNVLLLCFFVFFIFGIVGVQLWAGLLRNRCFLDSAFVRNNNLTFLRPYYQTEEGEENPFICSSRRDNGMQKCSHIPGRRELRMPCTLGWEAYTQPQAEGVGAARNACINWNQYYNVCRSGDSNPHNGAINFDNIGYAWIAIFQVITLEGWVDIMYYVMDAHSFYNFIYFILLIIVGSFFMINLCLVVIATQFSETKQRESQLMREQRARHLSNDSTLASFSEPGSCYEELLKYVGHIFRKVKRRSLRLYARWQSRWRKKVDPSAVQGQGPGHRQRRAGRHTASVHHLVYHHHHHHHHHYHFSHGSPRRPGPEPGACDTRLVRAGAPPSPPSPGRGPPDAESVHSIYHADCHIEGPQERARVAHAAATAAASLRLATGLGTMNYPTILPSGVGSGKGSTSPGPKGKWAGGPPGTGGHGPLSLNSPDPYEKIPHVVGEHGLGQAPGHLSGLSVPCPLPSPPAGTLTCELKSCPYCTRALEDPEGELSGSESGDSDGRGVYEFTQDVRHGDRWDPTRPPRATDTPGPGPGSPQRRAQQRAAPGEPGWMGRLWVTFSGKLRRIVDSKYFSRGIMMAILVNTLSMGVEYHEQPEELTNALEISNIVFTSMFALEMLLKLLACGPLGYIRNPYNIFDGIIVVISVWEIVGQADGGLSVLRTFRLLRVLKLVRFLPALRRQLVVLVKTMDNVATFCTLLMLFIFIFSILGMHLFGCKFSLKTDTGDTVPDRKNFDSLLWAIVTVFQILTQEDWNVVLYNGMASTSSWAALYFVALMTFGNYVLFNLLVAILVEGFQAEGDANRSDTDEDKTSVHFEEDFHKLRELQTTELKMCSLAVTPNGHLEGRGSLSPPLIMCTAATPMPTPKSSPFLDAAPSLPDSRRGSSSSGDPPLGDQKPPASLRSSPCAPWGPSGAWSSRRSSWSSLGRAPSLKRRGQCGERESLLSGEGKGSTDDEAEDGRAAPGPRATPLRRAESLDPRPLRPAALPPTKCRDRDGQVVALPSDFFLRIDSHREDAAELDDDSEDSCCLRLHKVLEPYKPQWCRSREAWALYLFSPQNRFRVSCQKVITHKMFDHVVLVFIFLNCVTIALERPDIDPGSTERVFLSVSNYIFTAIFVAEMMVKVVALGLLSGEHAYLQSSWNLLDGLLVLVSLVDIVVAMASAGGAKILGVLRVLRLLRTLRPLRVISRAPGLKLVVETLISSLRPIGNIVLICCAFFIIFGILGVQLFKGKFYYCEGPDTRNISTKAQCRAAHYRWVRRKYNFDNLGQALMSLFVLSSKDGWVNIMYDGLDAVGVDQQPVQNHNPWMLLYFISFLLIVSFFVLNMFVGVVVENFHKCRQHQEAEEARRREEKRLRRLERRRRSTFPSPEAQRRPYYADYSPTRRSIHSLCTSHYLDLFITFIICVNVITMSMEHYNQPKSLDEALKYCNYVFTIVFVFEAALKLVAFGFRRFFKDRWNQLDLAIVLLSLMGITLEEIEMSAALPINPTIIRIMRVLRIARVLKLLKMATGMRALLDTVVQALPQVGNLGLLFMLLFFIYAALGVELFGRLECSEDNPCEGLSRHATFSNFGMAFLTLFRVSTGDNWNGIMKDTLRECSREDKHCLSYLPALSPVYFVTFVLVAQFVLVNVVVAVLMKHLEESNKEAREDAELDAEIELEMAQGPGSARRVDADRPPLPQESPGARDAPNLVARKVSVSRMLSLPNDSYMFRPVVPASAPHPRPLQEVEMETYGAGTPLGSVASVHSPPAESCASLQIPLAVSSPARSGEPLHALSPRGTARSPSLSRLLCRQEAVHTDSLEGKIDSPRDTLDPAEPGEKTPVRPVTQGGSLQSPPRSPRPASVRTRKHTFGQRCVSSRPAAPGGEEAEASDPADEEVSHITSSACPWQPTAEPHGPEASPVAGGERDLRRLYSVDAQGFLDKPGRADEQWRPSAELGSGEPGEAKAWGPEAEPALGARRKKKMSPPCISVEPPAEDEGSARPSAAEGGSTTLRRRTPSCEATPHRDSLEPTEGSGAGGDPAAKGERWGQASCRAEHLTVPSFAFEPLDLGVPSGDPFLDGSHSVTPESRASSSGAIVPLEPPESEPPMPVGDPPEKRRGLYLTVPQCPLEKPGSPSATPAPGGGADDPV
Sequence of Nonstructural protein 1 (Q194T2 whole entry): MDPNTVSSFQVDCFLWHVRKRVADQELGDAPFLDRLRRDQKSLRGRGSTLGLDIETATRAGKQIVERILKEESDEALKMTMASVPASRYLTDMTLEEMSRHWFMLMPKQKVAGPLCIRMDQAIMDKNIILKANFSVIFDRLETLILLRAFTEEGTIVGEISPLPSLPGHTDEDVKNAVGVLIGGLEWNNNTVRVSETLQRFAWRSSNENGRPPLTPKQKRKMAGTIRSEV
Sequence of Cytochrome P450 2D6 (P10635 whole entry): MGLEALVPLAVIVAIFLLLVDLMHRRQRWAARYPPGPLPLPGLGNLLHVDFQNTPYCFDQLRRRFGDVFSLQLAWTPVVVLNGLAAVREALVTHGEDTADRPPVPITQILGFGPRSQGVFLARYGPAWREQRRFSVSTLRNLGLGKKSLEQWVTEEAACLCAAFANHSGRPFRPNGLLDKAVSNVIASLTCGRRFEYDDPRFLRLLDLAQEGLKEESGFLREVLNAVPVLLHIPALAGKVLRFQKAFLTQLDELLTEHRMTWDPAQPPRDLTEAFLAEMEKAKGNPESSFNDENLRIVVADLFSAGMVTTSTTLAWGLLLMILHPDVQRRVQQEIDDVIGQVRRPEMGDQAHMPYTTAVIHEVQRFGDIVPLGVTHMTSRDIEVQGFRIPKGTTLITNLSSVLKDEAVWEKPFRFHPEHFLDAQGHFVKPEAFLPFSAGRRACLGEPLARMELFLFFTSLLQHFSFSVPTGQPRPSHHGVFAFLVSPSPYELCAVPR

Regarding `O=[N+]([O-])c1ccccc1/C=N/n1c(S)nnc1-c1cccnc1`, the IC50 – broadly, the concentration that inhibits the measured activity by half – in test [1] is 3.08 µM (active); in [2], > 100 µM (inactive).

With `CCN1C(=O)/C(=C/NNC(=O)c2ccncc2)C(=O)NC1=S`, the IC50 was 13.3 µM (active) at Nonstructural protein 1 and 85.1 µM (active) at Aminopeptidase N.

Regarding `CCc1n(CC(O)COC2CCCCC2)c2ccccc2[n+]1C` (stereo unspecified), the figures for the IC50 in test [3] and in test [4] were 1.42 µM (active) and 1.75 µM (active), respectively.

Take `CC(=O)Nc1ccc2nc(-c3ccccn3)[nH]c2c1`: the concentration for half-maximal inhibition (IC50) on Aminopeptidase N was 94 µM (active).

As for `[O-]/[N+](=C\c1ccncc1)c1ccccc1`, the IC50 in test [5] was > 80 µM (inactive).

Consider `CCNS(=O)(=O)c1ccc(CCC(=O)NCc2ccccc2)cc1`, for which the IC50 at Aminopeptidase N is 60.1 µM (active).

As to `CCCCCC(O)CCc1nnc(S)n1-c1ccccc1` (stereo unspecified), the figures for the IC50 in [1] and in test [2] were 6.33 µM (active) and > 100 µM (inactive), respectively.

Take `COc1ccc(C2NC(=O)c3sc(=S)n(-c4ccccc4)c3N2)cc1` (stereo unspecified): the EC50 (commonly the concentration that produces a half-maximal response) was 21.6 µM (active) in test [6], 1.23 µM (active) in [7] and 22.6 µM (active) in [8].

Turning to `COc1ccc(N2C(=O)CC(Sc3n[nH]c(-c4ccccc4)n3)C2=O)cc1` (stereo unspecified), the IC50 in test [1] was 14.9 µM (active); in test [2], > 100 µM (inactive).

On to `O=[N+]([O-])c1cc(S(=O)(=O)Nc2cccc(C(F)(F)F)c2)ccc1-n1nnc2ccccc21`, for which the IC50 at Fatty acid synthase [9] is 4.72 µM (active); on Fatty acid synthase [10], 7.12 µM (active). In addition, the EC50 in [7] was 3.52 µM (active).

With `O=C(NN1C(=O)c2ccccc2NC1c1ccccn1)c1ccccc1` (stereo unspecified), the IC50 at Aminopeptidase N was 81.1 µM (active).

Regarding `COc1cccc(-c2cc(C(=O)Nc3cc(C)n(Cc4ccc(Cl)cc4)n3)no2)c1`, the IC50 in test [11] was > 80 µM (inactive).

Consider `O=C(Nc1nnc(S(=O)(=O)N2CCCCC2)s1)c1cccc(Br)c1`, for which the IC50 in [5] is > 80 µM (inactive).

As to `O=S(=O)(c1cccc(-c2nnc(S)n2Cc2ccccc2)c1)N1CCOCC1`, the IC50 is 4.28 µM (active) in test [1] and > 100 µM (inactive) in [2].

Consider `Cc1ccccc1NC(=O)N1CCCC(c2nc(-c3ccc(C(C)C)cc3)no2)C1` (stereo unspecified), for which the EC50 in the test with H4 was 23.1 µM (active); in test [7] it was 8.11 µM (active); in test [12], 5.18 µM (active); in test [13], 0.157 µM (active).

Take `Cc1cccc(NC(=O)CSc2nc3ccccc3o2)c1`: the EC50 in test [7] is 4.44 µM (active).

For `O=C(NNC(=S)NCCc1ccccc1)c1ccc(Br)s1`, at Aminopeptidase N, the IC50 is 9.19 µM (active).

Turning to `FC(F)(F)c1nc(N2CCCC2)ncc1-c1nnnn1-c1ccc(Cl)cc1`, the EC50 in [7] is 14.6 µM (active).

For `Cc1c(Cl)c([N+](=O)[O-])nn1Cc1ccc(C(=O)N/N=C\c2cccc(Br)c2)o1`, the IC50 in test [5] is > 80 µM (inactive). Moreover, the CC50 (in general, the concentration at which the toxic effect on the cells reaches its halfway point) in test [14] is 39.4 µM (active). Further, the AC50 (as a rule, the concentration giving half of the maximal activity seen) on Cytochrome P450 2D6 was 25.1 µM (inconclusive).

Take `O=C(CSc1ccccn1)Nc1cccc2ccccc12`: the IC50 in test [3] is 6 µM (active); in test [4] it was 8.82 µM (active).
